What was measured:
[1] = biological target: human A2A receptors (Homo sapiens (Human), UniProt P29274); assay: A2A adenosine receptor competition radioligand binding assay; settings: membranes from human A2A receptors transfected to HeLa cells, [3H]-ZM241385
Experimental: (§1) Human membranes for recombinant adenosine receptors were purchased from Receptor Biology, Inc. (USA).
A2A Adenosine Receptor Competition Radioligand Binding Assay
Competitive assays were carried out by incubation of membranes from human A2A receptors transfected to HeLa cells, [^3H]-ZM241385, buffer (Tris-HCl 50 mM (pH=7.4), 10 mM MgCl2, EDTA 1 mM and 2 units/ml adenosine deaminase), and unlabelled ligand in a total volume of 0.2 ml for 60 min at 25° C. NECA was used to determine nonspecific binding. It was filtered over Schleicher & Schuell GF/52 (presoaked with 0.5% polyethyleneimine) in a Brandel cell harvester. The unbound radioligand was removed with 3×250 μl of 20 mM Tris-HCl 50 mM (pH=7.4), 10 mM MgCl2, EDTA 1 mM.

[2] = biological target: adenosine A2B receptor (Homo sapiens (Human), UniProt P29275); assay: A2B adenosine receptor competition radioligand binding assay; settings: human recombinant source (HEK-293 cells), [3H]DPCPX
adenosine A2B receptor, sequence (P29275 whole entry): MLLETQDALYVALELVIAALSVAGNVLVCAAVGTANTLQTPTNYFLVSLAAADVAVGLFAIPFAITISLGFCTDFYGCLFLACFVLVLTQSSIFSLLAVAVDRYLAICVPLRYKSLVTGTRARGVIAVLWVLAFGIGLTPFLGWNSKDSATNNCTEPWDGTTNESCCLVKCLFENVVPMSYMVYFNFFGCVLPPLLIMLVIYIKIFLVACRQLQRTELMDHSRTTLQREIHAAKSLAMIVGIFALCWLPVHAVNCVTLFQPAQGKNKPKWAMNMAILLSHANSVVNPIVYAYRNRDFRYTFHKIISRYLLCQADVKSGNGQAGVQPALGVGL
Experimental: A2B Adenosine Receptor Competition Radioligand Binding Assay
The binding assay for adenosine A2B receptor subtype was carried out on human recombinant source (HEK-293 cells) and [^3H]DPCPX as radioligand, according to assay disclosed by Fredholm et al. (International Union of Pharmacology. XXV. Nomenclature and classification of adenosine receptors, Pharmacol Rev. 2001 December; 53(4):527-52).

[3] = biological target: hA1 receptors (Homo sapiens (Human), UniProt P30542); assay: Adenosine A1 receptor subtype competition radioligand binding assay; settings: hA1 receptors transfected to CHO cells, [3H]DPCPX
hA1 receptors, sequence (P30542 whole entry): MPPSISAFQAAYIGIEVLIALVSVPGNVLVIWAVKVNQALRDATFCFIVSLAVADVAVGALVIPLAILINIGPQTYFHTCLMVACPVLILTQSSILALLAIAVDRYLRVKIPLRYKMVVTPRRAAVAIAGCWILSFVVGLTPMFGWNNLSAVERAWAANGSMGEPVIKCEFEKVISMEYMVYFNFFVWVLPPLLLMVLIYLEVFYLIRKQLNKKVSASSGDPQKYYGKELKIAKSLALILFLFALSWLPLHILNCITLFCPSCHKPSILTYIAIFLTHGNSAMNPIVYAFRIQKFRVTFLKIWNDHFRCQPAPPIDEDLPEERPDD
Experimental: as §1
Adenosine A1 Receptor Subtype Competition Radioligand Binding Assay
Competition assays were carried out by incubation of human recombinant membranes of adenosine receptors (Receptor Biology, Inc.) from hA1 receptors transfected to CHO cells, [^3H] DPCPX as radioligand, buffer (HEPES 20 mM (pH=7.4), 10 mM MgCl2, 100 mM NaCl, 2 U/mL of deaminase adenosine and non-labelled ligand in a total volume of 0.2 mL for 90 min at 25° C. R-PIA was used to determinate non-specific binding. Filter over Schleicher & Schuell GF/52 (pre-soaked 0.5% polyethylenimine) in a Brandel cell harvester. Unbound radioligand was removed with HEPES 30 mM (3×250 μl), NaCl (100 mM) and MgCl2 (10 mM).

[4] = biological target: human A3 receptors (Homo sapiens (Human), UniProt P0DMS8); assay: A3 adenosine receptor competition radioligand binding assay; settings: membranes from human A3 receptors transfected to CHO cells, [3H]-NECA
human A3 receptors, sequence (P0DMS8 whole entry): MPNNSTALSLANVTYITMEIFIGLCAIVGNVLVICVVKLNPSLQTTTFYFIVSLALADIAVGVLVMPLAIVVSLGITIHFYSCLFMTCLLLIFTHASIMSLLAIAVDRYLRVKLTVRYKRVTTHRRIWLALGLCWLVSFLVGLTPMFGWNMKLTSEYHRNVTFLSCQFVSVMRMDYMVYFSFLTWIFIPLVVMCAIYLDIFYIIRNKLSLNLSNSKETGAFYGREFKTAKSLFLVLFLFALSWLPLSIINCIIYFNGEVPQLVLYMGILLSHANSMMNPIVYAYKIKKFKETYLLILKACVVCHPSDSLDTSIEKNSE
Experimental: as §1
A3 Adenosine Receptor Competition Radioligand Binding Assay
Competitive assays were carried out by incubation of membranes from human A3 receptors transfected to CHO cells, [^3H]-NECA, buffer (20 mM HEPES (pH 7.4), 100 mM NaCl, 10 mM MgCl2, 2 units/ml adenosine deaminase), and unlabelled ligand in a total volume of 0.2 ml for 60 min at 25° C. R-PIA was used to determine nonspecific binding. It was filtered over Schleicher & Schuell GF/52 (presoaked with 0.5% polyethyleneimine) in a Brandel cell harvester. The unbound radioligand was removed with 3×250 μl of 20 mM HEPES (pH 7.4), 100 mM NaCl, 10 mM MgCl2.

[5] = test system: experimental autoimmune uveitis; settings: experimental autoimmune uveitis model; cited from earlier work
[6] = test system: rheumatoid arthritis (RA) patients; settings: oral administration twice daily for 12 weeks; cited from earlier work
[7] = biological target: A3AR receptor (Homo sapiens (Human), UniProt P0DMS8); settings: read-out: affinity on the A3AR receptor (IC50); cited from earlier work
A3AR receptor, sequence (P0DMS8 whole entry): as above

human A2A receptors, sequence (P29274 whole entry): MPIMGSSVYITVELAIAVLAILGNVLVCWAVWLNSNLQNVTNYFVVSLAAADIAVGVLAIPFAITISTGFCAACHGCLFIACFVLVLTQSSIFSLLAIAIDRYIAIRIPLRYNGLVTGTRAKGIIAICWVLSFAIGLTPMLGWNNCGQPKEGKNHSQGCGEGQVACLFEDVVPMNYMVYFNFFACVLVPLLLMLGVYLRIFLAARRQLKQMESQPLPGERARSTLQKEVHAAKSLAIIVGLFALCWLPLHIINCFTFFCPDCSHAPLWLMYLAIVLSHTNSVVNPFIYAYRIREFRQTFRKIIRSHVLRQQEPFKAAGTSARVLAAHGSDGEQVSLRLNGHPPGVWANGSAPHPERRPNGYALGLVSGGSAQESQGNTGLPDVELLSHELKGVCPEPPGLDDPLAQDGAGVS

| Ki [1] | Ki [2] | Ki [3] | Ki [4] | Structure (SMILES) | effect on manifestations of uveitis [5] | effect on disease signs and symptoms [6] | safety and tolerability [6] | IC50 [7] |
| --- | --- | --- | --- | --- | --- | --- | --- | --- |
| > 1000 nM | > 500 nM | > 500 nM | 103 nM | N#Cc1sc(NC(=O)c2ccc(N3CCC(C(=O)O)CC3)nc2)nc1-c1ccccc1 [Example 1, 1-(5-(5-cyano-4-phenylthiazol-2-ylcarbamoyl)pyridin-2-yl) piperidine-4-carboxylic Acid] | – | – | – | – |
| > 1000 nM | > 1000 nM | > 1000 nM | 65.5 nM | COc1cccc(-c2nc(NC(=O)c3ccc(N4CCC(C(=O)O)CC4)nc3)sc2C#N)c1 [Example 3, 1-(5-((5-cyano-4-(3-methoxyphenyl)thiazol-2-yl)carbamoyl)pyridin-2-yl) piperidine-4-carboxylic Acid] | – | – | – | – |
| > 1000 nM | > 500 nM | > 500 nM | 26.3 nM | N#Cc1sc(NC(=O)c2ccc(N3CCC(C(=O)O)CC3)nc2)nc1-c1ccccc1F [Example 5, 1-(5-((5-cyano-4-(2-fluorophenyl)thiazol-2-yl)carbamoyl)pyridin-2-yl) piperidine-4-carboxylic Acid] | – | – | – | – |
| > 1000 nM | > 1000 nM | > 1000 nM | 50.3 nM | N#Cc1sc(NC(=O)c2ccc(N3CCC(C(=O)O)CC3)nc2)nc1-c1cccc(F)c1 [Example 6, 1-(5-((5-cyano-4-(3-fluorophenyl)thiazol-2-yl)carbamoyl)pyridin-2-yl) piperidine-4-carboxylic Acid] | – | – | – | – |
| > 500 nM | > 1000 nM | > 500 nM | 29.2 nM | N#Cc1sc(NC(=O)c2ccc(N3CCC(C(=O)O)CC3)nc2)nc1-c1cccs1 [Example 14, 1-(5-(5-cyano-4-(thiophen-2-yl)thiazol-2-ylcarbamoyl)pyridin-2-yl) piperidine-4-carboxylic Acid] | – | – | – | – |
| – | – | – | – | CNC(=O)[C@H]1O[C@@H](n2cnc3c(NCc4cccc(I)c4)ncnc32)[C@H](O)[C@@H]1O [IB-MECA, 1-deoxy-1-[6-[((3-iodophenyl)methyl)amino]-9H-purin-9-yl]-N-methyl-β-D-ribofuranuronamide] | inhibited the clinical and pathological manifestations of uveitis | able to mediate an improvement of disease signs and symptoms | safe, well tolerated | – |
| – | – | – | – | COc1cc(Nc2ncc(F)c(Nc3ccc4c(n3)N(COP(=O)(O)O)C(=O)C(C)(C)O4)n2)cc(OC)c1OC [fostamatinib] | – | – | – | 81 nM |

From patent publication US10744125B2, “Adenosine A3 receptor modulators” (Palobiofarma, S.L., priority 2017, dated 2020)
